For the assay, the target named is T1, hLPAR1 (human lysophosphatidic acid receptor 1) (Homo sapiens, UniProt Q92633).
T1 construct: host or cells: CHO-K1 (CHO-K1/LPA1R, cultured under hygromycin B selection)
Briefly: FLIPR antagonist property test: LPA-induced intracellular calcium elevation in CHO-K1/LPA1R cells. In kind it is cell-based. Conditions: hLPAR1 expressed in CHO-K1 cells, LPA at EC80, read-out: LPAR1 IC50. The procedure: The antagonist properties of a compound of the present disclosure were assessed using the FLIPR (fluorometric imaging plate reader) method. The compound is an inhibitor of intracellular calcium elevation induced by activation of hLPAR1 (human lysophosphatidic acid receptor 1) expressed in CHO-K1 cells (Chinese hamster ovary K1 cells, HDB). • 1. Experimental reagents and instrument consumables
• 2. Reagent preparation • 2.1. Reaction buffer: HBSS+20 mM HEPES+0.1% fatty acid-free BSA+0.001% F-127 • 2.2. 50× Red dye: (a red dye for blocking background signals in cells) prepared by: weighing out 4 g of tartrazine and 10.2 g of acid red and dissolving them in 100 mL of H2O. • 2.3. Fluo-8 staining mixture: 4 mL of reaction buffer, 32 μL of fluo-8, 320 μL of 50× Red dye, and 40 μL of probenecid. • 3. Compound preparation • 3.1. […] When the cells became round, the digestion was stopped with culture medium F-12 (10% FBS), and the cells were counted. […] An FLIPR was correspondingly programmed, the 6×LPA gradient solutions were added, and readings were taken. […] A reaction curve was obtained from the numerical values of LPA, and the concentration of LPA at EC80 was calculated. […] An FLIPR was correspondingly programmed, the 6×LPA solution was added, and readings were taken. […] Finally, the output fluorescence counts were analyzed, and the IC50 of the compound was calculated. • 5. […]
In general terms: Calcium flux is commonly read through the fluorescence of an indicator in the cells.

Here are results for 1 compound from patent US20260226025A1, “PHARMACEUTICALLY ACCEPTABLE SALT AND CRYSTAL FORM OF TRIAZOLE COMPOUND, AND PREPARATION METHOD THEREFOR” (JIANGSU HENGRUI PHARMACEUTICALS CO., LTD., priority 2023, published 2026).

T1 sequence (Q92633 whole entry): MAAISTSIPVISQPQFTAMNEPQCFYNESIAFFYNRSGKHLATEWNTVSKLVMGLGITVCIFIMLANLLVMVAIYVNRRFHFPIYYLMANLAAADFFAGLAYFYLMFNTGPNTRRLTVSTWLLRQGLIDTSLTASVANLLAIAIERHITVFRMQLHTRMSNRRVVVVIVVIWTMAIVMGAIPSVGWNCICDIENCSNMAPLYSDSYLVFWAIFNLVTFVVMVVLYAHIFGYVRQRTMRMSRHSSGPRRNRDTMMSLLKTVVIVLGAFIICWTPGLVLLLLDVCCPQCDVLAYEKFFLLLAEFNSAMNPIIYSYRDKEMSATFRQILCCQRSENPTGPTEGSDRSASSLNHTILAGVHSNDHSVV

For the compound `COCc1ccnc(OCc2c(-c3ccc(O[C@H]4C[C@@H]5CC[C@H](C(=O)O)[C@@H]5C4)c(C)n3)nnn2C)n1` [Compound 1-P1, (1S,3aS,5S,6aR)-5-((6-(5-(((4-(methoxymethyl)pyrimidin-2-yl)oxy)methyl)-1-methyl-1H-1,2,3-triazol-4-yl)-2-methylpyridin-3-yl)oxy) octahydropentalene-1-carboxylic acid], the IC50 (in general, the point on the concentration scale where inhibition reaches its midpoint) is 8.7 nM.
